Data: PubChem BioAssay AID256 (DTP/NCI, 2004)
Values joined by “and” are separate entries in the source; they are usually repeats but may differ in a detail not shown here. Identical values can stand only once. Toxic doses and inconclusive results are not listed. How the source made its calls: active means survival T/C of 150% or more; inactive means T/C below 125% in these data.

Tested on: CD2F1 mice, L1210 leukemia ip, survival T/C
Assay: NCI In Vivo Anticancer Drug Screen. Data for tumor model L1210 Leukemia (intraperitoneal) in CD2F1 (CDF1) mice
Details: higher = longer survival
Summary of the method: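 Ratio T/C, where T is the treated-group value and C the vehicle-dosed control value, from mice implanted with a transplantable tumor.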

[1] = endpoint: mean survival time, dose: 100.0 mg/kg/injection, schedule: Q04DX003 (ip), vehicle: saline with Tween-80
[2] = endpoint: mean survival time, dose: 200.0 mg/kg/injection, schedule: Q04DX003 (ip), vehicle: saline with Tween-80
[3] = endpoint: mean survival time, dose: 400.0 mg/kg/injection, schedule: Q04DX003 (ip), vehicle: saline with Tween-80
[4] = endpoint: mean survival time, dose: 100.0 mg/kg/injection, schedule: Q04DX002 (ip), vehicle: saline with Tween-80
[5] = endpoint: mean survival time, dose: 200.0 mg/kg/injection, schedule: Q04DX002 (ip), vehicle: saline with Tween-80
[6] = endpoint: mean survival time, dose: 50.0 mg/kg/injection, schedule: Q01DX009 (ip), vehicle: Klucel (hydroxypropylcellulose) (HPC)

Measured: T/C

C1CCC(C2CCCC[N-]2)[N-]C1.C1CCC(C2CCCC[N-]2)[N-]C1.O=C(O)C(=O)O.[Ru+4] (configuration not stated)
inactive: endpoint: mean survival time, dose: 3.13 mg/kg/injection, schedule: Q04DX003 (ip), vehicle: water 101 % of control | endpoint: mean survival time, dose: 6.25 mg/kg/injection, schedule: Q04DX003 (ip), vehicle: water 93 % of control | endpoint: mean survival time, dose: 12.5 mg/kg/injection, schedule: Q04DX003 (ip), vehicle: water 96 % of control | endpoint: mean survival time, dose: 25.0 mg/kg/injection, schedule: Q04DX003 (ip), vehicle: water 93 % of control | endpoint: mean survival time, dose: 50.0 mg/kg/injection, schedule: Q04DX003 (ip), vehicle: water 93 % of control | endpoint: mean survival time, dose: 100.0 mg/kg/injection, schedule: Q04DX003 (ip), vehicle: water 95 % of control | endpoint: mean survival time, dose: 200.0 mg/kg/injection, schedule: Q04DX003 (ip), vehicle: water 91 % of control

Cc1ccc(S(=O)(=O)F)c(Cl)c1
inactive: endpoint: mean survival time, dose: 50.0 mg/kg/injection, schedule: Q01DX009 (ip), vehicle: saline sonified 97 % of control | endpoint: mean survival time, dose: 100.0 mg/kg/injection, schedule: Q01DX009 (ip), vehicle: saline sonified 97 % of control | endpoint: mean survival time, dose: 200.0 mg/kg/injection, schedule: Q01DX009 (ip), vehicle: saline sonified 95 % of control

CC[n+]1c(-c2ccccc2)c2cc(N)ccc2c2ccc(N)cc21 (tested in a mixture with another compound)
inactive: endpoint: mean survival time, dose: 5.0 mg/kg/injection, schedule: Q01DX009 (ip), vehicle: water 104 % of control | endpoint: mean survival time, dose: 10.0 mg/kg/injection, schedule: Q01DX009 (ip), vehicle: water 104 % of control | endpoint: mean survival time, dose: 20.0 mg/kg/injection, schedule: Q01DX009 (ip), vehicle: water 104 % of control | endpoint: mean survival time, dose: 40.0 mg/kg/injection, schedule: Q01DX009 (ip), vehicle: water 102 % of control | endpoint: mean survival time, dose: 80.0 mg/kg/injection, schedule: Q01DX009 (ip), vehicle: water 86 % of control

CCCCCCC(=O)CCCCCCCCCCCCC(=O)OC
inactive: [1] 95 % of control | [2] 97 % of control | [3] 93 % of control

C=CN
inactive: endpoint: mean survival time, dose: 25.0 mg/kg/injection, schedule: Q04DX002 (ip), vehicle: saline with Tween-80 95 % of control | endpoint: mean survival time, dose: 50.0 mg/kg/injection, schedule: Q04DX002 (ip), vehicle: saline with Tween-80 106 % of control | [4] 98 % of control | [5] 98 % of control

Cc1ccccc1OP(=O)(c1ccccc1)c1ccccc1
inactive: [1] 100 % of control | [2] 105 % of control | [3] 110 % of control

C/C(=N/NC(=O)c1ccccc1)c1ccc(Cl)cc1Cl
inactive: [6] 89 % of control

CC(C)C(C(N)=O)C(N)=O
inactive: [4] 100 % of control | [5] 100 % of control

c1ccc(NC2=NCCO2)cc1
inactive: [1] 93 % of control | [2] 98 % of control

CCCCCCCC(=O)N1C(=O)CCC1C(=O)O (configuration not stated)
inactive: endpoint: mean survival time, dose: 100.0 mg/kg/injection, schedule: Q01DX001 (ip), vehicle: Klucel (hydroxypropylcellulose) (HPC) 100 % of control | endpoint: mean survival time, dose: 200.0 mg/kg/injection, schedule: Q01DX001 (ip), vehicle: Klucel (hydroxypropylcellulose) (HPC) 100 % of control | endpoint: mean survival time, dose: 400.0 mg/kg/injection, schedule: Q01DX001 (ip), vehicle: Klucel (hydroxypropylcellulose) (HPC) 104 % of control

CN(C)N=Nc1ccc(C#N)cc1C(N)=O
inactive: endpoint: mean survival time, dose: 18.8 mg/kg/injection, schedule: Q01DX009 (ip), vehicle: Klucel (hydroxypropylcellulose) (HPC) 106 % of control | endpoint: mean survival time, dose: 37.5 mg/kg/injection, schedule: Q01DX009 (ip), vehicle: Klucel (hydroxypropylcellulose) (HPC) 119 % of control | endpoint: mean survival time, dose: 150.0 mg/kg/injection, schedule: Q01DX009 (ip), vehicle: Klucel (hydroxypropylcellulose) (HPC) 101 % of control

COc1ccc(NC(=O)Nc2c(C)n(C)n(-c3ccccc3)c2=O)c(Cl)c1
inactive: [6] 95 % of control | endpoint: mean survival time, dose: 100.0 mg/kg/injection, schedule: Q01DX009 (ip), vehicle: Klucel (hydroxypropylcellulose) (HPC) 95 % of control | endpoint: mean survival time, dose: 100.0 mg/kg/injection, schedule: Q04DX003 (ip), vehicle: Klucel (hydroxypropylcellulose) (HPC) 104 % of control | endpoint: mean survival time, dose: 200.0 mg/kg/injection, schedule: Q01DX009 (ip), vehicle: Klucel (hydroxypropylcellulose) (HPC) 95 % of control | endpoint: mean survival time, dose: 200.0 mg/kg/injection, schedule: Q04DX003 (ip), vehicle: Klucel (hydroxypropylcellulose) (HPC) 104 % of control | endpoint: mean survival time, dose: 400.0 mg/kg/injection, schedule: Q04DX003 (ip), vehicle: Klucel (hydroxypropylcellulose) (HPC) 104 % of control

CCOC(=O)CC1OCCO1
inactive: [1] 98 % of control | [2] 103 % of control | [3] 101 % of control

Cc1cc2c(ccc3c2ccc2cccc(C)c23)c2ccccc12
inactive: endpoint: mean survival time, dose: 75.0 mg/kg/injection, schedule: Q01DX001 (ip), vehicle: saline 95 % of control | endpoint: mean survival time, dose: 150.0 mg/kg/injection, schedule: Q01DX001 (ip), vehicle: saline 88 % of control | endpoint: mean survival time, dose: 300.0 mg/kg/injection, schedule: Q01DX001 (ip), vehicle: saline 94 % of control

CCC1(O)C(=O)OCc2c1cc1n(c2=O)Cc2cc3ccc(C=O)cc3nc2-1 (configuration not stated)
inactive: endpoint: median survival time, dose: 4.0 mg/kg/injection, schedule: Q04DX002 (ip), vehicle: saline with Tween-80 98 % of control | endpoint: median survival time, dose: 8.0 mg/kg/injection, schedule: Q04DX002 (ip), vehicle: saline with Tween-80 96 % of control | endpoint: median survival time, dose: 16.0 mg/kg/injection, schedule: Q04DX002 (ip), vehicle: saline with Tween-80 98 % of control | endpoint: median survival time, dose: 32.0 mg/kg/injection, schedule: Q04DX002 (ip), vehicle: saline with Tween-80 102 % of control

c1ccc([Te][Te]c2ccccc2)cc1
inactive: endpoint: median survival time, dose: 12.5 mg/kg/injection, schedule: Q01DX009 (ip), vehicle: saline with Tween-80 104 % of control | endpoint: median survival time, dose: 25.0 mg/kg/injection, schedule: Q01DX009 (ip), vehicle: saline with Tween-80 108 % of control | endpoint: median survival time, dose: 50.0 mg/kg/injection, schedule: Q01DX009 (ip), vehicle: saline with Tween-80 104 % of control

C[N+](C)(C)CCO
inactive: endpoint: mean survival time, dose: 100.0 mg/kg/injection, schedule: Q01DX009 (ip), vehicle: saline 96 % of control | endpoint: mean survival time, dose: 200.0 mg/kg/injection, schedule: Q01DX009 (ip), vehicle: saline 102 % of control | endpoint: mean survival time, dose: 400.0 mg/kg/injection, schedule: Q01DX009 (ip), vehicle: saline 90 % of control

CC(=O)SC(c1ccccc1)(c1ccccc1)c1ccccc1
inactive: [1] 95 % of control and 103 % of control | [2] 91 % of control and 97 % of control | [3] 90 % of control and 100 % of control

CS(=O)(=O)OCCCOS(C)(=O)=O
inactive: endpoint: mean survival time, dose: 12.5 mg/kg/injection, schedule: Q01DX009 (ip), vehicle: saline with Tween-80 107 % of control | endpoint: mean survival time, dose: 25.0 mg/kg/injection, schedule: Q01DX009 (ip), vehicle: saline with Tween-80 116 % of control | endpoint: mean survival time, dose: 50.0 mg/kg/injection, schedule: Q01DX001 (ip), vehicle: saline 96 % of control | endpoint: mean survival time, dose: 50.0 mg/kg/injection, schedule: Q01DX009 (ip), vehicle: saline with Tween-80 116 % of control | endpoint: mean survival time, dose: 100.0 mg/kg/injection, schedule: Q01DX001 (ip), vehicle: saline 100 % of control | endpoint: mean survival time, dose: 100.0 mg/kg/injection, schedule: Q01DX009 (ip), vehicle: saline with Tween-80 105 % of control | endpoint: mean survival time, dose: 100.0 mg/kg/injection, schedule: Q04DX003 (ip), vehicle: saline 105 % of control | endpoint: mean survival time, dose: 200.0 mg/kg/injection, schedule: Q01DX001 (ip), vehicle: saline 102 % of control | endpoint: mean survival time, dose: 200.0 mg/kg/injection, schedule: Q04DX003 (ip), vehicle: saline 106 % of control | endpoint: mean survival time, dose: 400.0 mg/kg/injection, schedule: Q01DX001 (ip), vehicle: saline 100 % of control | endpoint: mean survival time, dose: 400.0 mg/kg/injection, schedule: Q04DX003 (ip), vehicle: saline 110 % of control
